Test results reported in patent US11905252B2, “Compounds” (INFLAZOME LIMITED, priority 2018, dated 2024).

Target: T1, NLRP3 (Homo sapiens, UniProt Q96P20)
T1 construct: Seed THP-1 cells (25,000 cells/well) containing 1.0 μg/ml LPS; host or cells: THP-1 cells, LPS-primed, nigericin-stimulated
Assay: THP-1 cells pyroptosis assay (LPS-primed, nigericin-stimulated, resazurin readout)
Type: cell-based
Conditions: 1 μg/ml LPS, 5 μM nigericin
Method: THP-1 cells (ATCC #TIB-202) were grown in RPMI containing L-glutamine (Gibco #11835) supplemented with 1 mM sodium pyruvate (Sigma #S8636) and penicillin (100 units/ml)/streptomycin (0.1 mg/ml) (Sigma #P4333) in 10% Fetal Bovine Serum (FBS) (Sigma #F0804). The cells were routinely passaged and grown to confluency (˜10^6 cells/ml). On the day of the experiment, THP-1 cells were harvested and resuspended into RPMI medium (without FBS). The cells were then counted and viability (>90%) checked by Trypan blue (Sigma #T8154). Appropriate dilutions were made to give a concentration of 625,000 cells/ml. To this diluted cell solution was added LPS (Sigma #L4524) to give a 1 μg/ml Final Assay Concentration (FAC). 40 μl of the final preparation was aliquoted into each well of a 96-well plate. The plate thus prepared was used for compound screening.
The following method step-by-step assay was followed for compound screening. • 1. Seed THP-1 cells (25,000 cells/well) containing 1.0 μg/ml LPS in 40 μl of RPMI medium (without FBS) in 96-well, black walled, clear bottom cell culture plates coated with poly-D-lysine (VWR #734-0317) • 2. Add 5 μl compound (8 points half-log dilution, with 10 μM top dose) or vehicle (DMSO 0.1% FAC) to the appropriate wells • 3. Incubate for 3 hrs at 37° C. in 5% CO2 • 4. […] Plates were read in an Envision reader at Ex 560 nm and Em 590 nm • 9. […]

T1 sequence (Q96P20 whole entry): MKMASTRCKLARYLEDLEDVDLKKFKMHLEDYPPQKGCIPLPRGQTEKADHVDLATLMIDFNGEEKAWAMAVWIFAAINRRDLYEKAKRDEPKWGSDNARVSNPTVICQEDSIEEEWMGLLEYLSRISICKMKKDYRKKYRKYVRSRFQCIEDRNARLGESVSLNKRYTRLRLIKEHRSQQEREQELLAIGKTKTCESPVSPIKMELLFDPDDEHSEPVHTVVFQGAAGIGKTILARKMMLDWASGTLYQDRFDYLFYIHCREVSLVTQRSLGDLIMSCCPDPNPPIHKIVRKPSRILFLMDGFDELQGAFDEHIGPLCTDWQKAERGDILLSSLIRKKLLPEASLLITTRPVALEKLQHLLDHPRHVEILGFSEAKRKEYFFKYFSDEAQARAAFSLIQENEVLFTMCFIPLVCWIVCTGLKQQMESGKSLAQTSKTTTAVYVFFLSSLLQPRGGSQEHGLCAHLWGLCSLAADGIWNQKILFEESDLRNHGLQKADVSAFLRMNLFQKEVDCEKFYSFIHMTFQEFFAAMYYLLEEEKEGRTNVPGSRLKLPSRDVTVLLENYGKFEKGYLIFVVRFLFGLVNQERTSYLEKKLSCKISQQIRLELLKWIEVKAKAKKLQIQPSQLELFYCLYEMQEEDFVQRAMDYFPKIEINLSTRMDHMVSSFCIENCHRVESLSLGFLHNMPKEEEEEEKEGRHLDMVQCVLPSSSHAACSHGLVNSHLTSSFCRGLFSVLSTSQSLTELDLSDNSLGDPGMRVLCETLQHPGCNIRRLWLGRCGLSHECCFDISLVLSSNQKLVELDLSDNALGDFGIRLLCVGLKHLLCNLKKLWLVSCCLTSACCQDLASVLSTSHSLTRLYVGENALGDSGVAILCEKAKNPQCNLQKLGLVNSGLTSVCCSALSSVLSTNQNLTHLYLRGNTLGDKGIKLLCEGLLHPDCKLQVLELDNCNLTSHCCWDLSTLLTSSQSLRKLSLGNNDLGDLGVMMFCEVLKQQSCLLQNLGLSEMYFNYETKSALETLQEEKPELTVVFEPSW

IC50 [nM]	Structure (SMILES)
160 to 640	Cn1nc(S(=O)(=O)NC(=O)Nc2c3c(c(C#N)c4c2CCC4)CCC3)cc1C(C)(C)O [Example 1, N-((8-Cyano-1,2,3,5,6,7-hexahydro-s-indacen-4-yl)carbamoyl)-5-(2-hydroxypropan-2-yl)-1-methyl-1H-pyrazole-3-sulfonamide]
≤ 160	Cn1nc(S(=O)(=O)NC(=O)Nc2c3c(c(Br)c4c2CCC4)CCC3)cc1C(C)(C)O [Example 2, N-((8-Bromo-1,2,3,5,6,7-hexahydro-s-indacen-4-yl)carbamoyl)-5-(2-hydroxypropan-2-yl)-1-methyl-1H-pyrazole-3-sulfonamide]
